This note sets out measurements from BindingDB's records for doi:10.1016/j.bmcl.2019.05.048 (Bristol-Myers Squibb, 2019).

The assay has as its target Hepatic lipase (Mouse). The assay is described as follows: Inhibition of hepatic lipase in endothelial lipase knock-out mouse plasma using D31-POPC-HDL as substrate incubated for 2 hrs by LC/MS analysis.

Structures are written as SMILES.

One may read the IC50 as the concentration that gives 50% inhibition. A low value points to greater potency in that assay. `COCCS(=O)(=O)C(C(=O)NCC(=O)NC1CC1)c1nc2ccc(-c3ccc(F)nc3)cc2s1` (stereo unspecified) registered an IC50 of 26 µM.
